In US7109234B2, “Benzoxathiepine derivatives and their use as medicines” (Pierre Fabre Medicament, priority 2001, dated 2006):
Where two headings read alike, the source gives them in different places.

Assays:
New Zealand rabbits = experiment: Occlusion-reperfusion model in the anesthetized animal (ECG ST segment, arterial pressure, heart rate); format: in vivo, rabbit; details: for Arterial pressure % variation / Heart rate % variation / ST segment % inhibition at 2.5 mg/kg p.o.: 2.5 mg/kg p.o., anesthetized rabbit; for ST segment % inhibition at 2.5 mg/kg p.o.: coronary occlusion-reperfusion
Procedure: Thus, the compounds of the invention are capable of normalizing the electrical disturbances of the ECG brought about by a regional ischemia followed by a reperfusion, this being achieved without a significant effect on the hemodynamic parameters. The test in question is carried out according to the technique described in J. Cardiovasc. Pharmacol., 1995, 25, 126 according to the following protocol.
Male New Zealand rabbits (Elévage des Dombes, Romans, Chatillon-sur-Chalaronne, France) weighing 2.2 to 2.7 kg are used. The animals are placed in quarantine for 4 to 8 days with free access to standardized laboratory food before they are used in the experiments. The animals are housed individually. Water filtered through a 0.22 μm filter is freely available from an automatic dispenser. The quarantine area and the experimental laboratory are air-conditioned (temperature: 20±3° C.; relative humidity: 55±5%) and are illuminated from 7 a.m. to 7 p.m. All the animals are treated according to the code of ethics for laboratory animals (Guide for the Care and Use of Laboratory Animals, […], Public Health Service, National Institutes of Health publication No. 85-23, Revised 1985) and the protocol (No. 28) is carried out in accordance with the recommendations of the local research animals ethics committee. The animals are anesthetized using sodium pentobarbital (60 mg/kg) administered intravenously (i.v.) via a catheter positioned in the vein of the ear. The animals are instrumented with respiratory assistance (683 rodent/small animal ventilator, Havard Apparatus, Les Ulis, France). The gas mixture inhaled is enriched in oxygen. The respiratory rhythm, the flow volume and the percentage of oxygen in the gas mixture are adjusted so as to keep the gases in the blood within physiological limits. A polyethylene catheter, introduced into the carotid artery, is used both for the measurements of arterial pressure and to take the samples intended for the analysis of the blood gases (ABL 510, Radiometer, Copenhagen, Denmark). Anesthesia is maintained by injections of sodium pentobarbital as required. The body temperature of the animals is kept at 38–39° C. throughout the duration of the experiment using a heating blanket (Homothermic Blanket, Havard Apparatus). The various catheters are rinsed using a sterile saline solution (0.9%) comprising heparin (150 U.I./ml). The ECG (DII derivation) is recorded in order to measure the variations in the heart rate (RR interval) and in the amplitude of the ST segment. The arterial pressure is digitized and analyzed simultaneously (Dataflow®, Crystal Biotech, Northboro, Mass.). The thorax of the animal is opened at the fourth intercostal space and the pericardium is incised so as to reveal the left coronary artery. A ligature (Vicryl®, 5/0, Ethicon, Paris, France) is passed under this artery. After examining the ECG in order to detect any signs of myocardial lesions (persistent rise of the ST segment above 0.25 mV), a period of stabilization lasting 30 min is systematically observed. Any animal showing a possible myocardial lesion is excluded from the study. The test compound or the vehicle is administered per os (p.o.), as a 1% solution in methyl-cellulose, in a proportion of 1 ml/kg via a gastric tube made of flexible rubber. Anesthesia is produced 60 min after administration of the test compound or of the vehicle. The main coronary artery is then ligated for 10 min, i.e. 60 min after anesthesia, the tension in the ligature is subsequently relaxed completely for 10 min and then reestablished at the end of the procedure. The heart is excised and perfused using a formaldehyde solution (10%). The surface not fixed by the formaldehyde is regarded as the surface at risk.
The parameters measured in the experiment are: • the systolic and diastolic arterial pressure; • the heart rate (measured from the RR intervals); • the amplitude of the ST segment. […]

rat isolated left atrium = experiment: Inhibition of the veratrine-induced contraction of the rat isolated left atrium; format: cell-based; details: for IC50: read-out: Contraction with veratrine Inhibition IC50
[1] = rat isolated left atrium, veratrine 100 μg/ml, product added 15 min before

SMILES | Arterial pressure % variation (New Zealand rabbits) | Heart rate % variation (New Zealand rabbits) | ST segment % inhibition at 2.5 mg/kg p.o. (New Zealand rabbits) | in vivo activity (inhibition of the raising of the ST segment) (New Zealand rabbits; stated in words, 2.5 mg/kg by the oral route) | IC50 (rat isolated left atrium; [1]) | in vitro activity (contraction with veratrine) (rat isolated left atrium; stated in words) | IC50 (rat isolated left atrium; Rattus norvegicus)
COc1ccc([C@@H]2Sc3ccccc3N(CCN(C)C)C(=O)[C@@H]2OC(C)=O)cc1 [Diltiazem, diltiazem] | −27% | −5% | 30% | active | > 10000 nM | inactive | –
COc1ccccc1SC[C@@H](C)CN[C@@H]1COc2ccccc2SC1 [Compound 1-7, 3-(R)-[3-(2-Methoxyphenylthio)-2-(S)-methylpropyl]amino-3,4-dihydro-2H-1,5-benzoxathiepine] | 5% | 0% | 69% | – | 140 nM | – | –
CN(c1nc2ccccc2s1)C1CCN(CCCCOc2ccc(F)cc2)CC1 [R 56865] | – | – | 0% | – | – | – | 250 nM
COc1ccccc1SC[C@H](CN[C@@H]1COc2ccccc2SC1)OC [Compound 1-1, 3-(R)-[3-(2-Methoxyphenylthio)-2-(S)-methoxypropyl]amino-3,4-dihydro-2H-1,5-benzoxathiepine] | 8% | 2% | 85% | – | 640 nM | – | –
